Results published in PubChem BioAssay (NCI).
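Five concentrations, 48 hours, 96-well plates. TGI marks complete inhibition of growth.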

What was measured:
Assay in all cases: DTP human tumour cell line panel, 48 h
[1] = tested on: 786-0 renal
[2] = tested on: A549 NSCLC
[3] = tested on: CAKI-1 renal
[4] = tested on: CCRF-CEM leukemia
[5] = tested on: COLO 205 colon
[6] = tested on: DLD-1 colon
[7] = tested on: DMS 114 small cell lung
[8] = tested on: EKVX NSCLC
[9] = tested on: HCC-2998 colon
[10] = tested on: HCT-116 colon
[11] = tested on: HL-60(TB) leukemia
[12] = tested on: HOP-18 NSCLC
[13] = tested on: HOP-62 NSCLC
[14] = tested on: HOP-92 NSCLC
[15] = tested on: HT29 colon
[16] = tested on: IGROV1 ovarian
[17] = tested on: K-562 leukemia
[18] = tested on: KM12 colon
[19] = tested on: LXFL 529 NSCLC
[20] = tested on: M14 melanoma
[21] = tested on: M19-MEL melanoma
[22] = tested on: MALME-3M melanoma
[23] = tested on: MOLT-4 leukemia
[24] = tested on: NCI-H226 lung
[25] = tested on: OVCAR-3 ovarian
[26] = tested on: OVCAR-4 ovarian
[27] = tested on: OVCAR-8 ovarian
[28] = tested on: RPMI-8226 leukemia
[29] = tested on: SF-295 CNS
[30] = tested on: SF-539 CNS
[31] = tested on: SK-MEL-2 melanoma
[32] = tested on: SK-MEL-5 melanoma
[33] = tested on: SK-OV-3 ovarian
[34] = tested on: SNB-19 CNS
[35] = tested on: SNB-78 CNS
[36] = tested on: SW-620 colon
[37] = tested on: TK-10 renal
[38] = tested on: UACC-257 melanoma
[39] = tested on: UACC-62 melanoma
[40] = tested on: UO-31 renal
[41] = tested on: A498 renal
[42] = tested on: ACHN renal
[43] = tested on: DMS 273 small cell lung
[44] = tested on: HCT-15 colon
[45] = tested on: KM20L2 colon
[46] = tested on: LOX IMVI melanoma
[47] = tested on: NCI-H23 lung
[48] = tested on: NCI-H460 lung
[49] = tested on: NCI-H522 lung
[50] = tested on: OVCAR-5 ovarian
[51] = tested on: RXF 393 renal
[52] = tested on: SF-268 CNS
[53] = tested on: SK-MEL-28 melanoma
[54] = tested on: SN12C renal
[55] = tested on: SNB-75 CNS
[56] = tested on: SR leukemia
[57] = tested on: U251 CNS

Compound: CSc1nc(NC2OC(COC(C)=O)C(OC(C)=O)C(OC(C)=O)C2OC(C)=O)c(N=C(C)C(C)=O)c(=O)n1C (stereo not given)
- TGI [1]: > 100 µM
- TGI [2]: > 100 µM
- TGI [3]: > 100 µM
- TGI [4]: > 100 µM
- TGI [5]: > 100 µM
- TGI [6]: > 100 µM
- TGI [7]: > 100 µM
- TGI [8]: > 100 µM
- TGI [9]: > 100 µM
- TGI [10]: > 100 µM
- TGI [11]: > 100 µM
- TGI [12]: > 100 µM
- TGI [13]: > 100 µM
- TGI [14]: > 100 µM
- TGI [15]: > 100 µM
- TGI [16]: > 100 µM
- TGI [17]: > 100 µM
- TGI [18]: > 100 µM
- TGI [19]: > 100 µM
- TGI [20]: > 100 µM
- TGI [21]: > 100 µM
- TGI [22]: > 100 µM
- TGI [23]: > 100 µM
- TGI [24]: > 100 µM
- TGI [25]: > 100 µM
- TGI [26]: > 100 µM
- TGI [27]: > 100 µM
- TGI [28]: > 100 µM
- TGI [29]: > 100 µM
- TGI [30]: > 100 µM
- TGI [31]: > 100 µM
- TGI [32]: > 100 µM
- TGI [33]: > 100 µM
- TGI [34]: > 100 µM
- TGI [35]: > 100 µM
- TGI [36]: > 100 µM
- TGI [37]: > 100 µM
- TGI [38]: > 100 µM
- TGI [39]: > 100 µM
- TGI [40]: > 100 µM

Compound: Cc1ccc(/C=C(\C#N)c2ccccc2)cc1
- TGI [1]: > 100 µM
- TGI [41]: > 100 µM
- TGI [42]: > 100 µM
- TGI [3]: > 100 µM
- TGI [4]: > 100 µM
- TGI [5]: > 100 µM
- TGI [6]: > 100 µM
- TGI [7]: > 100 µM
- TGI [43]: > 100 µM
- TGI [9]: > 100 µM
- TGI [10]: > 100 µM
- TGI [44]: > 100 µM
- TGI [12]: > 100 µM
- TGI [13]: > 100 µM
- TGI [14]: > 100 µM
- TGI [15]: > 100 µM
- TGI [16]: > 100 µM
- TGI [17]: > 100 µM
- TGI [18]: > 100 µM
- TGI [45]: > 100 µM
- TGI [46]: > 100 µM
- TGI [19]: > 100 µM
- TGI [20]: > 100 µM
- TGI [21]: > 100 µM
- TGI [23]: > 100 µM
- TGI [24]: > 100 µM
- TGI [47]: > 100 µM
- TGI [48]: > 100 µM
- TGI [49]: > 100 µM
- TGI [25]: > 100 µM
- TGI [26]: > 100 µM
- TGI [50]: > 100 µM
- TGI [27]: > 100 µM
- TGI [28]: > 100 µM
- TGI [51]: > 100 µM
- TGI [52]: > 100 µM
- TGI [29]: > 100 µM
- TGI [30]: > 100 µM
- TGI [31]: > 100 µM
- TGI [53]: > 100 µM
- TGI [32]: > 100 µM
- TGI [33]: > 100 µM
- TGI [54]: > 100 µM
- TGI [55]: > 100 µM
- TGI [35]: > 100 µM
- TGI [56]: > 100 µM
- TGI [36]: > 100 µM
- TGI [37]: > 100 µM
- TGI [57]: > 100 µM
- TGI [38]: > 100 µM
- TGI [39]: > 100 µM
- TGI [40]: > 100 µM

Compound: COC(=O)C(=O)C(C(=O)C=C(C)C)C(=O)C(=O)Nc1nc2ccc([N+](=O)[O-])cc2s1 (stereo not given)
- TGI [1]: > 100 µM
- TGI [41]: 91 µM
- TGI [2]: > 100 µM
- TGI [42]: > 100 µM
- TGI [3]: 94.7 µM
- TGI [4]: > 100 µM
- TGI [5]: > 100 µM
- TGI [6]: > 100 µM
- TGI [7]: > 100 µM
- TGI [43]: > 100 µM
- TGI [8]: > 100 µM
- TGI [9]: > 100 µM
- TGI [10]: > 100 µM
- TGI [44]: > 100 µM
- TGI [11]: > 100 µM
- TGI [12]: 54.6 µM
- TGI [13]: > 100 µM
- TGI [14]: 74.2 µM
- TGI [15]: > 100 µM
- TGI [16]: 66.4 µM
- TGI [17]: > 100 µM
- TGI [18]: > 100 µM
- TGI [45]: > 100 µM
- TGI [46]: > 100 µM
- TGI [19]: > 100 µM
- TGI [20]: > 100 µM
- TGI [21]: > 100 µM
- TGI [22]: > 100 µM
- TGI [23]: > 100 µM
- TGI [24]: > 100 µM
- TGI [47]: > 100 µM
- TGI [48]: > 100 µM
- TGI [49]: 78.9 µM
- TGI [25]: > 100 µM
- TGI [26]: > 100 µM
- TGI [50]: > 100 µM
- TGI [27]: > 100 µM
- TGI [28]: > 100 µM
- TGI [51]: 45.2 µM
- TGI [52]: > 100 µM
- TGI [30]: > 100 µM
- TGI [31]: > 100 µM
- TGI [53]: > 100 µM
- TGI [32]: > 100 µM
- TGI [33]: > 100 µM
- TGI [54]: > 100 µM
- TGI [34]: > 100 µM
- TGI [55]: 63.7 µM
- TGI [35]: > 100 µM
- TGI [36]: > 100 µM
- TGI [37]: > 100 µM
- TGI [57]: > 100 µM
- TGI [38]: > 100 µM
- TGI [39]: > 100 µM
- TGI [40]: > 100 µM

Compound: O=C(O)CC1CC=C[C@H]2c3cc4c(cc3C(=O)NC12)OCO4 (stereo not given in full)
- TGI [1]: > 75 µM
- TGI [2]: > 75 µM
- TGI [42]: > 75 µM
- TGI [4]: > 75 µM
- TGI [5]: > 75 µM
- TGI [6]: > 75 µM
- TGI [7]: > 75 µM
- TGI [43]: > 75 µM
- TGI [8]: > 75 µM
- TGI [9]: > 75 µM
- TGI [10]: > 75 µM
- TGI [44]: > 75 µM
- TGI [11]: > 75 µM
- TGI [13]: > 75 µM
- TGI [16]: > 75 µM
- TGI [17]: > 75 µM
- TGI [18]: > 75 µM
- TGI [45]: > 75 µM
- TGI [46]: > 75 µM
- TGI [19]: > 75 µM
- TGI [20]: > 75 µM
- TGI [21]: > 75 µM
- TGI [22]: > 75 µM
- TGI [23]: > 75 µM
- TGI [24]: > 75 µM
- TGI [47]: > 75 µM
- TGI [48]: > 75 µM
- TGI [49]: > 75 µM
- TGI [25]: > 75 µM
- TGI [27]: > 75 µM
- TGI [28]: > 75 µM
- TGI [51]: > 75 µM
- TGI [52]: > 75 µM
- TGI [29]: > 75 µM
- TGI [30]: > 75 µM
- TGI [53]: > 75 µM
- TGI [33]: > 75 µM
- TGI [54]: > 75 µM
- TGI [34]: > 75 µM
- TGI [55]: > 75 µM
- TGI [35]: > 75 µM
- TGI [56]: > 75 µM
- TGI [36]: > 75 µM
- TGI [37]: > 75 µM
- TGI [57]: > 75 µM
- TGI [38]: > 75 µM
- TGI [39]: > 75 µM
- TGI [40]: > 75 µM
